Laboratory results published in patent publication US20040226502A1, “Crystal structure of 2c-methyl-d-erythritol 2,4-cyclodiphosphate synthase” (priority 2001, published 2004).

Key:
[1] = target: T1, 2C-methyl-D-erythritol 2,4-cyclodiphosphate synthase (Escherichia coli, UniProt P62617); assay: Crystal soaking and 3D structure determination of ligand complexes; format: binding, E. coli; settings: for affinity for the protein (in words): from crystals/structures subs, sub2 and cyt
T1 construct: His6 (from vector pQE30) (N); made in house; host or cells: E. coli XL1-Blue carrying pQEispF
T1 sequence (P62617 whole entry): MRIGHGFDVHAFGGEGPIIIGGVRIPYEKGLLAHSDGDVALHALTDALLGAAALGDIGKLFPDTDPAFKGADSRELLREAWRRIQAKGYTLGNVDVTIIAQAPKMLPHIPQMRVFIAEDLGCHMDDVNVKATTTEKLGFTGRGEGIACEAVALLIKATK
Description: The following substrate, substrate analoge and product complexes were determined in order to determine binding of these molecules to the synthase:
subop: a crystal soaked with 10 mM 4-diphosphocytidyl-2C-methyl-D-erythritol. The zinc atom the water or hydroxyl-group at the zinc is replaced by an oxygen of the beta-phosphate of the diphosphocytidyl-moiety.
subs: a crystal soaked with 10 mM 4-diphosphocytidyl-2C-methyl-D-erythritol 2-phosphate and 10 mM EDTA, that contains no zinc.
sub2: a crystal soaked with 10 mM 4-diphosphocytidyl-2C-methyl-D-erythritol 2-phosphate, that containes zinc and the products CMP and 2C-methyl-D-erythritol 2,4-cyclodiphosphate.
mgcdp2: a crystal soaked with 2 mM CDP and 5 mM MgCl2
cyt: a crystal soaked with 10 mM cytidine
These structures were determined using the nat2 structure as starting model. Initially a rigid body refinement was carried out followed by positional refinement. Then the substrate, substrate analoge or product molecules were build into the electron density of difference electron density maps, again followed by refinement of atom positions and B-factors.
Crystals containing the synthase and zinc were incubated for one hour with about 5 mM of a ligand in mother liquor containing 2M ammonium formate, 0.1M HEPES/NaOH at pH 7.0 and 20% D-(−)-2,3-butanediole (purchased from FLUKA) as a cryo-protectant. Crystals were mounted in a nylon-loop and flash frozen in a stream of nitrogen at 100Kelvin with an Oxford cryo stream. […] Diffraction data were measured at that temperature without any indication of radiation damage.
In order to obtain a crystal structure of 2C-methyl-D-erythritol 2,4-cyclodiphosphate synthase in complex with CDP, the synthase was crystallized according to example 8. A crystal of suitable size was then soaked in crystallization buffer (see example 8) further containing 5 mM CDP and 5 mM MgCl2.
The starting model for the determination of the structure of the complex was the structure of the synthase without a substrate analoge. […]

[2] = target: T1, 2C-methyl-D-erythritol 2,4-cyclodiphosphate synthase; format: biochemical; settings: E. coli enzyme, compound as substrate
Description: Assay mixtures contain 50 mM potassium phosphate, pH 7.0, 2 mM DTT, 2 mM MgCl2, 1 mM 4-diphosphocytidyl-2C-methyl-D-erythritol 2-phosphate and protein in a total volume of 100 μl. The mixtures are incubated at 37° C. for 20 min. The reactions are terminated by adding EDTA at a final concentration of 4 mM. The samples are centrifuged and the supernatant is analyzed by HPLC using a column of Multospher 120 RP 18-AQ-5 (4.6×250 mm, CS-Chromatographic Service Gmbh) that has been equilibrated and run with Gradient No. 3 at a flow rate 1 ml min^−1 (see below). The effluent is monitored photometrically (270 nm).
One unit of 2C-methyl-D-erythritol 2,4-cyclodiphosphate synthase activity is defined as the amount of protein which produced 1 μmol min^−1 of CMP.
Column: Multospher 120 RP 18-5 AQ, 250×4.6 mm, particle size 5 μm (CS: Chromatographic Service GmbH, Langerwehe, Germany)

Nc1ccn([C@@H]2O[C@H](COP(=O)(O)OP(=O)(O)O)[C@@H](O)[C@H]2O)c(=O)n1 [CDP, cytidine diphosphate]
type of inhibition of the synthase (in words) ([1]; inferred from binding to a portion of the active site in the synthase-CDP complex): competitive inhibitor

Nc1ccn([C@@H]2O[C@H](COP(=O)(O)O)[C@@H](O)[C@H]2O)c(=O)n1 [CMP, cytidine monophosphate]
affinity for the protein (in words) [1]: considerable affinity

C[C@@](CO)(OP(=O)(O)O)[C@H](O)COP(=O)(O)OP(=O)(O)OC[C@H]1O[C@@H](n2ccc(N)nc2=O)[C@H](O)[C@@H]1O [4-diphosphocytidyl-2C-methyl-D-erythritol 2-phosphate]
Km [2]: 37 µM | vmax [2]: 76 µmol/mg/min

Nc1ccn([C@@H]2O[C@H](CO)[C@@H](O)[C@H]2O)c(=O)n1 [cytidine]
affinity for the protein (in words) [1]: considerable affinity
